From patent US12576060B2, “Water soluble 3-O-acetyl-11-keto-β-boswellic acid and metal ion compositions, process for their preparation and uses thereof” (LAILA NUTRA PRIVATE LIMITED, priority 2020, dated 2026)
Values joined by “and” are separate entries in the source; they are usually repeats but may differ in a detail not shown here. Identical values can stand only once.

Tests used:
C-reactive protein (CRP) = assay: Reduction of C-Reactive Protein (CRP) in muscle, exercise-induced DOMS model of rats; type: in vivo, Sprague Dawley rats; conditions: 25 mg/kg for seven days; for Mean CRP conc.: EDL muscle tissue lysate; for % reduction of CRP from normal control: EDL muscle
Procedure: On day 1 of the study, male Sprague Dawley rats (8-12 weeks) were randomized into seven groups, each group contained seven animals. Basal readings (Paw Withdrawal Threshold) of mechanical hyperalgesia (Electronic von Frey) were obtained. Animals were dosed with either 25 mg/kg of the test items or vehicle (0.5% CMC-Na) for seven days. On day 5, Delayed Onset of Muscle Soreness (DOMS) was induced by introducing the animals to downhill treadmill running task (rate, 15 m/min; time, 5 min; incline, −20° followed by a 1-min rest, repeated 18 times) for 90 min or till exhaustion. Paw Withdrawal Threshold (PWT) was measured at 1 h, 4 h, 24 h (day 6) and 48 h (day 7) post to eccentric exercise and the exploratory behavior measurements were taken at 1 h and 4 h post to DOMS induction. Terminal necropsy was performed after euthanizing the animals under CO2 asphyxiation.
Small pieces of the extensor digitorum longus (EDL) muscles were macerated in liquid nitrogen (LN2) and homogenized in a tissue lysis buffer [50 mM Tris-HCl (pH 7.4), 150 mM NaCl, 5 mM EDTA, 0.5% sodium dodecyl sulfate (SDS), 1% deoxycholate, 0.1% Triton X-100, 1% Nonidet P-40 (NP-40), 0.05% mercaptoethanol, 10 mg/ml PMSF, 0.5 mg/ml leupeptin, 0.2 mg/ml aprotinin, and 1 mM Na3VO4]. The homogenate was centrifuged at 18928 g for 25 min at 4° C., and the supernatant was collected. Protein concentrations of the tissue lysates were determined using BCA protein assay kit (Thermo Fisher, Rockford, IL). C-reactive protein (CRP) concentrations in the muscle tissue lysates were determined using a commercial kit (Rat CRP/C-Reactive Protein ELISA Kit, Sigma, Cat #RAB0097) following the manufacturer's instructions, where the samples were diluted with assay buffer (1:10000) and performed the assay. The amount of CRP present in the tissue lysates was calculated and expressed as nanogram (ng) per milligram of protein. The reduction of CRP concentration in the muscle samples in the treated groups was calculated using the following formula.

[1] = Solubility in water of potassium or sodium salts of AKBA; type: physicochemical; conditions: volume of water needed to completely dissolve 1.0 g; room temperature (RT)
Procedure: (§1) These potassium or sodium salts of AKBA were evaluated for their solubility in water and determined their pH.

[2] = system: Leukotriene B4 (LTB4) production; assay: Assay for Leukotriene B4 (LTB4) inhibition in A23187-induced polymorphonuclear leukocytes (PMNs); type: cell-based; conditions: human PMNs, 10 μM A23187 induction
Procedure: Human blood was collected from healthy volunteers from a peripheral vein in the presence of 2 mM EDTA. Plasma was separated by centrifugation at 1000 rpm for 10 minutes, and the residual cell pellet was resuspended in RPMI medium supplemented with 10% FBS and 2 mM EDTA. Thirty milliliters of blood cell suspension was carefully overlayed onto 15 mL of Ficoll/Lymphoprep in a 50 mL falcon tube in the dark, and the tube was centrifuged at 350×g for 30 minutes without using the brake. After removing the peripheral blood mononuclear cells (PBMC) and Ficoll/Lymphoprep, the settled red blood cell (RBC) layer containing granulocytes was treated with ACK lysis buffer (Gibco Cat #A10492-01) to lyse the RBC. After centrifugation at 1200 rpm for 10 minutes, the resulting cell pellet of polymorphonuclear leukocytes (PMNs) was resuspended in RPMI containing 1% newborn calf serum (NBCS). These cells were seeded in a 96-well plate at a density of 50,000 cells/well and treated with different concentrations of the test samples. Cells with 0.2% DMSO served as vehicle control. The plate was incubated in a CO2 incubator at 37° C. for 2 hrs. Finally, the cells treated with test samples were induced with 10 μM A23187 for 10 minutes at 37° C. in a CO2 incubator. The cells treated with only A23187 served as induction control. The plate was centrifuged at 1200 rpm for 5 minutes, and 120 μL cell-free supernatants were collected. Quantitation of LTB4 was performed using an ELISA kit (R&D Systems, Cat #SKGE006B) following the manufacturer's instructions. Absorbance was measured at 450 nm with a correction wavelength of 570 nm in a plate reader (Spectramax2e, Molecular Devices, USA). The reduction of LTB4 production was calculated using the following formula. % reduction of LTB4=[(Normalized Conc. of LTB4 in Induction)−(Normalized Conc. of LTB4 in Test sample)]/(Normalized Conc. of LTB4 in Induction)×100 The results are presented in tables: 3-5.

[3] = system: Prostaglandin E2 (PGE2) production; assay: Assay for Prostaglandin E2 (PGE2) inhibition in LPS-induced peripheral blood mononuclear cells (PBMC); type: cell-based; conditions: LPS 10 ng/mL induction; for % Inhibition of PGE2: human PBMC
Procedure: Human blood was collected from healthy volunteers from a peripheral vein with a syringe containing EDTA at a final concentration of 2 mM. Plasma was separated by centrifugation at 1000 rpm for 10 minutes, and the residual blood was diluted with RPMI medium supplemented with 10% FBS and 2 mM EDTA in a ratio of 1:3. Thirty milliliters of blood was carefully layered onto the 15 mL of Ficoll/Lymphoprep in a 50 mL falcon tube, and tubes were centrifuged at 350×g for 30 minutes at an acceleration of 9 without using the brake. Buffy coat (interface between medium and Ficoll) containing peripheral blood mononuclear cells (PBMC) was collected carefully in 25 mL of cold 1× phosphate-buffered saline (PBS) and centrifuged at 1200 rpm for 10 minutes. Residual RBCs found in PBMCs pellet were removed by treating with ACK lysis buffer (Gibco Cat #A10492-01) and washed with fresh 1×PBS. PBMC were seeded in a 96-well plate with a density of 0.1×10^6 cells/well and treated with different concentrations of test samples. Cells with 0.2% DMSO served as vehicle control. The plate was incubated in a CO2 incubator at 37° C. for 2 hrs. Finally, cells were induced with LPS (10 ng/mL final concentration) for 4 hours except for vehicle control by keeping the plate at 37° C. in a CO2 incubator. The plate was centrifuged at 1200 rpm for 5 minutes, and 120 μL cell-free supernatants were collected. Quantitation of PGE2 was performed using an ELISA kit (Cayman Chemicals Cat #514010) according to the manufacturer's instructions. Absorbance was measured at 412 nm in a kinetic mode for 30 minutes in a microplate reader (Spectramax2e, Molecular Devices, USA). Percent Inhibition of PGE2 was calculated using the following formula. % Inhibition of PGE2=(Normalized conc. of PGE2 in Induction)−(Normalized conc. of PGE2 in Test sample)/×100 • (Normalized conc. of PGE2 in Induction)
The normalized PGE2 concentration in the LPS induced or the treated wells were obtained from deducting the […].

pH of 1% solution = type: physicochemical
Procedure: as §1

Molecule	Mean CRP conc. (C-reactive protein (CRP))	% reduction of CRP from normal control (C-reactive protein (CRP)) [%]	Solubility of 1.0 g of product in water [1] [mL]	% reduction of LTB4 ([2]; 1.0 μg/mL) [%]	% reduction of LTB4 ([2]; 2.5 μg/mL)	% Inhibition of PGE2 ([3]; 1.0 μg/mL) [%]	% Inhibition of PGE2 ([3]; 2.5 μg/mL) [%]	pH (1% solution) (pH of 1% solution)	inhibition at 1 µg/mL ([3]; Homo sapiens, PBMC, 1.0 μg/mL) [%]	inhibition at 2.5 µg/mL ([3]; Homo sapiens, PBMC, 2.5 μg/mL) [%]
CC(=O)O[C@@H]1CC[C@@]2(C)[C@@H](CC[C@]3(C)[C@@H]2C(=O)C=C2[C@@H]4[C@@H](C)[C@H](C)CC[C@]4(C)CC[C@]23C)[C@@]1(C)C(=O)O [LN03, 3-O-acetyl-11-keto-β-boswellic acid]	65.44 ng/mg of protein	40.60	>1000	16.72	26.83%	15.02	26.28	6.63		
[Cl-].[Na+] [LN12, sodium chloride]	78.04 ng/mg of protein	10.64								
[Cl-].[K+] [LN11, potassium chloride]	78.21 ng/mg of protein	10.23								
CC(=O)O[C@@H]1CC[C@@]2(C)[C@@H](CC[C@]3(C)[C@@H]2C(=O)C=C2[C@@H]4[C@@H](C)[C@H](C)CC[C@]4(C)CC[C@]23C)[C@@]1(C)C(=O)O [LN04, 3-O-acetyl-11-keto-β-boswellic acid]			>1000	16.03	28.71%			6.64	17.2	20
potassium salt or complex or chelate of 3-O-acetyl-11-keto-β-boswellic acid [LN05]				21.95	57.57%	24.42	42.29	9.24		
sodium salt of 3-O-acetyl-11-keto-β-boswellic acid [LN08]	58.99 ng/mg of protein	55.94		21.66	46.10%	25.61	47.56	8.74		
potassium salt or complex or chelate of 3-O-acetyl-11-keto-β-boswellic acid [LN07]	56.97 ng/mg of protein	60.75	60	20.26	55.85%	26.50	49.08	9.21		
sodium salt of 3-O-acetyl-11-keto-β-boswellic acid [LN06]			80	20.16	47.97% and 47.87%	25.64	41.23	9.27		
